{
  "source": "patent EP1541166B1",
  "about": "“Preventing cell death using segments of neural thread proteins” (NYMOX CORPORATION, priority 2001, dated 2007)",
  "system": "live tissue containing AD7C-NTP",
  "test": "Prevention/inhibition of AD7C-NTP-induced necrosis of live tissue by Harlil sequences injected with AD7C-NTP into rats, histopathology",
  "type": "in vivo",
  "settings": "injected together with AD7C-NTP 100 ng/mL-10 µg/mL, 24 hours, compared to control samples injected with AD7C-NTP alone",
  "method": "AD7C-NTP was obtained as described above in Example 1.\nThe Harlil sequences NTP-1, NTP-3, and NTP-7 prepared in accordance with Example 2 above were used in this example.\nRecombinant AD7C-NTP samples 100 ng/mL-10 µg/mL were incubated at room temperature for 5 minutes to one hour with the aforementioned Harlil sequences and then injected into rats as described in Example 1.\nAlternatively, a solution of the Harlil sequence was made up in concentrations ranging from 1 microgram/mL to 1 milligram/mL. Solutions containing the recombinant AD7C-NTP also were made up as described above, without the addition of the Harlil sequence. The animals were injected with about 100 microliters of the AD7C-NTP solution, and with about 100 microliters of the Harlil solution.\nThe 24 individual foci of infiltration were excised, fixed in 10% formalin, embedded in paraffin, and stained and examined by standard histopathological methods.\nSimilar groups of control rats were injected with (1) AD7C-NTP alone as described in Example 1, (2) bovine serum albumin in saline, (3) normal human serum, and (4) physiological saline, and examined and sacrificed as above, with the excised foci of injection treated as above.",
  "data": [
    {"substance": "L H A R L C L A N F C G R N R V (LHARLCLANFCGRNRV) [NTP-1]", "values": [
      {"measurement": "reduction in tissue necrosis", "value": "over 95%"}
    ]}
  ]
}
